Data as given in ChEMBL document CHEMBL1153168, “3D QSAR studies on 3,4-dihydroquinazolines as T-type calcium channel blocker by comparative molecular similarity indices analysis (CoMSIA)” (Bioorg Med Chem Lett, 2010).

The compounds below were run against Voltage-dependent T-type calcium channel subunit alpha-1G (Homo sapiens, UniProt O43497) (assay: Inhibition of human T-type calcium channel alpha1G in HEK293 cells).
Format: cell-based

Chain of Voltage-dependent T-type calcium channel subunit alpha-1G (O43497 whole entry): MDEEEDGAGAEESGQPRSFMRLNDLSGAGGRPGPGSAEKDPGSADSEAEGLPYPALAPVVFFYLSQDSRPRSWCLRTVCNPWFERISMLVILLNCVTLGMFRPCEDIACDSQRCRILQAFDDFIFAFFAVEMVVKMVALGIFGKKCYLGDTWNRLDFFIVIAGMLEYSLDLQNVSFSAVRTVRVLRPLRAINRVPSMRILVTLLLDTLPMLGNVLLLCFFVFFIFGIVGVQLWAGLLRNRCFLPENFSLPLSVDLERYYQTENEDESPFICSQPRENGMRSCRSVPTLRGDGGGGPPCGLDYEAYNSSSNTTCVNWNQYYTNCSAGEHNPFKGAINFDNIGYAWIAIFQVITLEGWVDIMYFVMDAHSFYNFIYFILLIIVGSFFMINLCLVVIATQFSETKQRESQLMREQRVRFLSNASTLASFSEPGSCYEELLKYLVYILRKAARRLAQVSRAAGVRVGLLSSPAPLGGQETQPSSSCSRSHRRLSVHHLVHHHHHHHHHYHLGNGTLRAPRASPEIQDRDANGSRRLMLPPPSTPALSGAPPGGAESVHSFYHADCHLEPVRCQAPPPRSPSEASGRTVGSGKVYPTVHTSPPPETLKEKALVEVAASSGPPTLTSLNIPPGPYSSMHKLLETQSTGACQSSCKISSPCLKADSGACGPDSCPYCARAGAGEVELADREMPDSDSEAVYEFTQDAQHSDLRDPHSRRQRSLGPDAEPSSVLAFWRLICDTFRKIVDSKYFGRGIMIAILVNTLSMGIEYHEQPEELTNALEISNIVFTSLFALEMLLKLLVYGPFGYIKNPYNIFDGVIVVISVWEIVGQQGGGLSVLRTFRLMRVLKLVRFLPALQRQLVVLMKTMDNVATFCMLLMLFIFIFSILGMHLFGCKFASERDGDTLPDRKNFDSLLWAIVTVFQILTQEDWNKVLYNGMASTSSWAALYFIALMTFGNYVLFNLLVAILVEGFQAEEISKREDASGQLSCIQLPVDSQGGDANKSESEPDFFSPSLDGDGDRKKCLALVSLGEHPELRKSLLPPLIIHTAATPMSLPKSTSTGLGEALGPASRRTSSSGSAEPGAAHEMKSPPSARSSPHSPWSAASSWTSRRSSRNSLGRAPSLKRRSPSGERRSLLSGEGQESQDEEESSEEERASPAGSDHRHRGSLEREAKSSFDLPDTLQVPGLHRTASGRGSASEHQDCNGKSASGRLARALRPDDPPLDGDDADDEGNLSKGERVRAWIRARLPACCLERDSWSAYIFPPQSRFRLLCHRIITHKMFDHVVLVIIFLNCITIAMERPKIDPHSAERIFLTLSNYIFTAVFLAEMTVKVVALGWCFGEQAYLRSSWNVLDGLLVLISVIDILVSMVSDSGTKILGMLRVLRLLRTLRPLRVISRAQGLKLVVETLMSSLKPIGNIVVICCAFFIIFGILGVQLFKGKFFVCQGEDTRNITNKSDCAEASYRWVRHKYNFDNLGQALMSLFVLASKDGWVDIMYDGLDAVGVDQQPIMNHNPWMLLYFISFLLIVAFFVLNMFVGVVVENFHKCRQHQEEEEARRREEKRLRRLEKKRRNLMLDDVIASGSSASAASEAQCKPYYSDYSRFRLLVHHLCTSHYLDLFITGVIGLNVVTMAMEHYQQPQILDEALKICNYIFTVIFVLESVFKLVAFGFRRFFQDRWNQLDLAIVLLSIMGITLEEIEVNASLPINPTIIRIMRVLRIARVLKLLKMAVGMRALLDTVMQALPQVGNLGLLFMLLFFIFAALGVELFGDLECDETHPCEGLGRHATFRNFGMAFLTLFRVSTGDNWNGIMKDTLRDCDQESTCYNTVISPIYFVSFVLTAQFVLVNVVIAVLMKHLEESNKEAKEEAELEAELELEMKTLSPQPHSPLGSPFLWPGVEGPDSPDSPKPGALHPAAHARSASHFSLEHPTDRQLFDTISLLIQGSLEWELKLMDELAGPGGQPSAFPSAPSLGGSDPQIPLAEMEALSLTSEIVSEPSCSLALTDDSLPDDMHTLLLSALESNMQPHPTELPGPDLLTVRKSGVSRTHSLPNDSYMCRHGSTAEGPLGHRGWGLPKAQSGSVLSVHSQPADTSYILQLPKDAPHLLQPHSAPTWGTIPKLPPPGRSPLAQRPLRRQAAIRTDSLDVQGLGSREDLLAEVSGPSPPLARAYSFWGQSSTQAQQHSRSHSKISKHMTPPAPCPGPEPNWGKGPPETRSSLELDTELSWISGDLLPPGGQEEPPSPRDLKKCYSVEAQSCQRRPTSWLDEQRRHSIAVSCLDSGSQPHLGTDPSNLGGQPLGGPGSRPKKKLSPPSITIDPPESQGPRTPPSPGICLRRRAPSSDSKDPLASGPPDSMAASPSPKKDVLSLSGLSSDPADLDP

Structure (SMILES) | IC50
CCN1C(N(C)C)=Nc2ccccc2C1CC(=O)NCc1ccc(NS(=O)(=O)c2ccc(F)cc2)cc1 (stereo not drawn) | 4100 nM
CCN1C(N(C)C)=Nc2cc(N)ccc2C1CC(=O)NCc1ccc(N)cc1 (stereo not drawn) | 12700 nM
COC(=O)CC1c2ccccc2N=C(Nc2ccccc2)N1CCCCCN (stereo not drawn) | 9160 nM
COC(=O)CC1c2ccccc2N=C(NCCCCCNC(=O)OC(C)(C)C)N1c1ccccc1 (stereo not drawn) | 2020 nM
CCN1C(N(C)C)=Nc2ccccc2C1CC(=O)NCc1ccc([N+](=O)[O-])cc1 (stereo not drawn) | 2170 nM
CC(C)(C)OC(=O)NCCCCCN1C(Nc2ccccc2)=Nc2ccccc2C1CC(=O)NCc1ccccc1 (stereo not drawn) | 1200 nM
COC(=O)CC1c2ccccc2N=C(Nc2ccccc2)N1CCCCCNC(=O)OC(C)(C)C (stereo not drawn) | 2270 nM
CCN1C(N(C)C)=Nc2ccccc2C1CC(=O)NCc1ccc(NS(=O)(=O)c2ccc(C)cc2)cc1 (stereo not drawn) | 1120 nM

Further lines, results first:

IC50 | Structure (SMILES)
13000 nM | Nc1ccc(CNC(=O)CC2c3ccccc3N=C(N3CCCCC3)N2c2ccccc2)cc1 (stereo not drawn)
2340 nM | O=C(CC1c2ccccc2N=C(N2CCCCC2)N1c1ccccc1)NCc1ccc([N+](=O)[O-])cc1 (stereo not drawn)
430 nM | CN(C)C1=Nc2ccccc2C(CC(=O)NCc2ccc(NS(=O)(=O)c3ccc(F)cc3)cc2)N1c1ccccc1 (stereo not drawn)
4580 nM | CCN1C(N2CCCCC2)=Nc2ccccc2C1CC(=O)NCc1ccccc1 (stereo not drawn)
869 nM | CCN1C(N2CCCCC2)=Nc2ccccc2C1CC(=O)NCc1ccc([N+](=O)[O-])cc1 (stereo not drawn)
3130 nM | NCCCCCNC1=Nc2ccccc2C(CC(=O)NCc2ccccc2)N1c1ccccc1 (stereo not drawn)
4540 nM | NCCCCCN1C(Nc2ccccc2)=Nc2ccccc2C1CC(=O)NCc1ccccc1 (stereo not drawn)
1010 nM | O=C(CC1c2ccccc2N=C(N2CCCCC2)N1c1ccccc1)NS(=O)(=O)c1cccs1 (stereo not drawn)
24200 nM | CCN1C(N(C)C)=Nc2ccccc2C1CC(=O)NCc1ccccc1 (stereo not drawn)
1840 nM | COC(=O)CC1c2ccccc2N=C(NCCCCCN)N1c1ccccc1 (stereo not drawn)
